Read-outs that look alike come from different tables or passages of the source.
How the values were obtained:
[1] = tested on: mushroom tyrosinase; assay: Mushroom tyrosinase inhibition assay; type: biochemical; conditions: for IC50: mean ± SEM of three experiments
Description: As mushroom tyrosinase is commercially available and relatively cheap, it is used as a tool for the identification of novel tyrosinase inhibitors. Here, we examined the tyrosinase inhibitory activities of the 14 BABT derivatives against mushroom tyrosinase in the presence of L-tyrosine or L-dopa as substrates.
Mushroom tyrosinase inhibitory activities of BABT derivatives were determined as described previously, with minor modifications. L-Tyrosine and L-dopa were used as substrates to evaluate the enzyme activity. […] Assay mixtures were incubated at 37 °C for 30 min, and dopachrome amounts synthesized were determined by measuring the optical density of each well at 475 nm using a microplate reader (VersaMax; Molecular Devices, Sunnyvale, CA, USA).

[2] = DPPH radical scavenging assay; conditions: test samples 500 µM; DPPH 0.18 mM; 30 min in the dark
Description: DPPH is a light-sensitive compound containing free radicals. The DPPH assay is one of the most common methods for evaluating the antioxidant activity of a compound. The effects of BABT derivatives on DPPH radical scavenging activities were evaluated using L-ascorbic acid as a positive reference control. DPPH radical scavenging activities were measured after leaving the mixed samples (test samples of 500 µM plus DPPH solution of 0.18 mM) in the dark for 30 min. To determine the radical scavenging activities, the absorbance of the mixed samples was measured at 517 nm.
According to previously described methods, with minor modifications, the DPPH radical scavenging activities of BABT derivatives 1–14 were measured. A DPPH (0.2 mM) and methanol solution (180 µL) was mixed with 20 µL of a DMSO solution containing 5 mM BABT derivative, or with 20 µL of an aqueous solution of 5 mM L-ascorbic acid, in each well of a 96-well plate and kept at ambient temperature in the dark for 30 min. The optical density of each well was measured at 517 nm using a microplate reader (VersaMax; Molecular Devices). L-Ascorbic acid was used as a positive reference control, and the DPPH radical scavenging abilities of BABT derivatives were compared with those of L-ascorbic acid. All experiments were performed independently, thrice.

[3] = ABTS radical scavenging assay; conditions: test samples 100 µM; 2 min in the dark
Description: An antioxidant assay using ABTS is also commonly used to assess the antioxidant activities of compounds. Donation of one electron from ABTS to potassium persulfate generates the ABTS radical cation. An ABTS radical scavenging activity assay was performed using 100 µM of BABT derivatives or Trolox (a positive reference control) by mixing test samples with ABTS radical cations obtained from a reaction of potassium persulfate and ABTS. ABTS radical scavenging activity was assessed by measuring the optical density at 734 nm after leaving the test sample–ABTS radical cation mixture in the dark for 2 min.
According to a previously described method, with minor modifications, the ABTS radical scavenging activities of BABT derivatives 1–14 were assessed. Briefly, an ABTS radical solution was prepared by mixing 10 mL of aqueous ABTS solution (7 mM) with 10 mL of potassium persulfate aqueous solution (2.45 mM), and the mixture was kept for 11–15 h in the dark at room temperature until the absorbance remained constant. Prior to the antioxidant assay experiments, the ABTS radical solution was diluted with water to adjust the absorbance at 734 nm to 0.70 ± 0.02. A 10 µL aliquot of BABT derivatives or Trolox at a concentration of 1000 µM was added to 90 µL of ABTS+ free radical solution in each well of a 96-well plate and incubated for 2 min in the dark at ambient temperature. The absorbance of each well was measured at 734 nm using a microplate reader (VersaMax; Molecular Devices). The ABTS+ radical scavenging activities of BABT derivatives were compared to those of Trolox. All experiments were carried out independently, thrice.

[4] = SIN-1-induced ROS scavenging assay; conditions: 20 µM; SIN-1 as ROS generator; DCFH-DA probe
Excerpt: The scavenging activities of the BABT derivatives 1–14 against ROS and peroxynitrite (ONOO^−) were investigated because the antioxidant activities of the compounds may modulate melanogenesis. To measure the ROS scavenging activities of BABT derivatives, 2′,7′-dichlorodihydrofluorescein diacetate (DCFH-DA) and 3-morpholinosydnonimine (SIN-1) were used as a fluorogenic probe and ROS generator, respectively. The reaction of DCFH-DA with esterase produces 2′,7′-dichlorodihydrofluorescein (DCFH), which generates the fluorescent compound 2′,7′-dichlorofluorescein (DCF) by reacting with ROS produced by SIN-1. Therefore, ROS scavenging activities were determined by measuring the DCF fluorescence remaining after the BABT derivatives scavenged the ROS generated by SIN-1. […] BABT derivatives and Trolox, the positive control, were used at a concentration of 20 µM.
The ROS scavenging activities of the BABT derivatives were measured using an oxidant-sensitive fluorescent probe. Derivatives or Trolox (10 µL; final concentration: 20 µM) were seeded in a black 96-well plate. Then, 10 µL of SIN-1 (10 µM) was added to induce radical species generation and mixed with 180 µL of sodium phosphate buffer (pH 7.4) containing 12.5 µM DCF-DA and 600 units of esterase. Fluorescence intensity was measured at emission and excitation wavelengths of 535 and 485 nm, respectively, using a fluorescence microplate reader (Berthold Technologies GmbH & Co., Wien, Austria). Trolox was used as the positive control.

[5] = Peroxynitrite scavenging assay; conditions: 20 µM; SIN-1 as generator; DHR123 probe
Description: The effects of the BABT derivatives on peroxynitrite scavenging activities were also examined using SIN-1 as an RNS generator and dihydrorhodamine (DHR123) as an ROS indicator. DHR123 was converted to fluorescent rhodamine 123 by peroxynitrite generated by SIN-1. Therefore, the peroxynitrite scavenging activities of 1–14 were assessed by measuring the fluorescence of rhodamine 123. BABT derivatives and penicillamine, the positive control, were used at a concentration of 20 µM.
The peroxynitrite scavenging activities of the BABT derivatives were assessed using the method developed by Kooy, involving the monitoring of highly fluorescent rhodamine 123, which was rapidly produced from non-fluorescent DHR123 in the presence of peroxynitrite. Rhodamine buffer (pH 7.4) was composed of 50 mM sodium phosphate dibasic, 50 mM sodium phosphate monobasic, 90 mM sodium chloride, 5 mM potassium chloride, and 100 µM DTPA. A 10 µL aliquot of BABT derivatives or PCA (final concentration: 20 µM) was seeded in a black 96-well plate. Then, 10 µL of SIN-1 (10 µM) was added to induce radical species generation and mixed with 180 µL of rhodamine buffer. Fluorescence intensity was measured at emission and excitation wavelengths of 535 and 485 nm, respectively, using a fluorescence microplate reader (Berthold Technologies GmbH & Co.). PCA was used as the positive control.

[6] = target: T1, mushroom tyrosinase (Agaricus bisporus, UniProt C7FF04); assay: Kinetic studies of mushroom tyrosinase inhibition (Lineweaver–Burk and Dixon plots); type: biochemical; conditions: substrate L-dopa
T1 construct: purchased
Description: Kinetic studies using Lineweaver–Burk plots were performed using four different concentrations (0, 0.5, 1, and 2 µM) of the test derivatives (7 and 8) and five different concentrations (0.5, 1, 2, 4, and 8 mM for 7, and 1, 2, 4, 8, and 16 mM for 8) of L-dopa.
Lineweaver–Burk plots for 7 and 8 were transformed into the corresponding Dixon plots to determine their inhibition constant (Ki) values for the mushroom tyrosinase–inhibitor complex. […] The Ki values for the mushroom tyrosinase–inhibitor complex were obtained from the x-axis value of each convergence point.
Lineweaver–Burk plots of derivatives 7 and 8 were obtained in the presence of L-dopa as the substrate. Briefly, 20 µL aliquots of mushroom tyrosinase aqueous solution (200 units/mL) were added to each well of a 96-well plate containing 10 µL BABT derivative (7 or 8) DMSO solution (final concentrations: 0, 0.5, 1, and 2 µM) and 170 µL of an aqueous solution containing L-dopa (final concentrations: 1.0, 2.0, 4.0, 8.0, and 16.0 mM) and sodium phosphate buffer (pH 6.5, 17.2 mM). The initial rate of dopachrome formation was determined by examining the changes in absorbance at a wavelength of 475 nm (ΔOD475/min) using a microplate reader (VersaMax; Molecular Devices).

[7] = tested on: B16F10 cells; assay: Cell viability (EZ-Cytox assay); type: cell-based, murine; conditions: 0, 1, 2, 5, 10, 20 µM
Description: Before these experiments were performed, the influence of these derivatives on cytotoxicity in B16F10 cells was examined to determine their optimal concentration range for B16F10 cell experiments. The cytotoxicity of derivatives 7 and 8 at six concentrations (0, 1, 2, 5, 10, and 20 µM) was assessed using the EZ-Cytox assay.
Cytotoxicity assays in B16F10 cells were performed using the EZ-Cytox solution (EZ-3000, DoGenBio, Seoul, Republic of Korea). Briefly, B16F10 cells were seeded at a density of 1 × 10^4 cells per well and cultured at 37 °C in a 5% CO2 atmosphere for 24 h. […] Then, the EZ-Cytox solution (10 μL aliquot) was added to each well. After 2 h of incubation at 37 °C, the optical density of each well was measured at 450 nm using a microplate reader (VersaMax; Molecular Devices).

[8] = target: mushroom tyrosinase; parameters: method as in PMID 26235587; conditions: in the presence of L-tyrosine; cited from earlier work
[9] = substrate L-tyrosine, read-out: IC50 (µM) L-Tyrosine

T1 sequence (C7FF04 1-392): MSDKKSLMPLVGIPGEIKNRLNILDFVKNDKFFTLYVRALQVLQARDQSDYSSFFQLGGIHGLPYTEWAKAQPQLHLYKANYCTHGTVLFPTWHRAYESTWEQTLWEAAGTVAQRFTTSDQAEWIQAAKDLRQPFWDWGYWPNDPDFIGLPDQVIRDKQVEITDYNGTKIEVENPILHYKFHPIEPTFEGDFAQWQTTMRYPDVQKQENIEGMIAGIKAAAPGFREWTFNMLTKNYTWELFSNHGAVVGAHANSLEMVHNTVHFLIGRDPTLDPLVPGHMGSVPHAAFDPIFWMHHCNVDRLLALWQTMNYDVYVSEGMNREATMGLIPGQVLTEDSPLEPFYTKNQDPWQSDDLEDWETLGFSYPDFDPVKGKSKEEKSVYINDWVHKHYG

IC50 [1, 9] | Compound | DPPH radical scavenging activity, % inhibition [2] | ABTS radical scavenging activity, % inhibition [3] | ROS scavenging activity (in words) [4] | further results
> 300 µM | O=C1N=C(NCc2ccccc2)S/C1=C\c1ccc(O)c(O)c1 [Compound 9, (Z)-2-(benzylamino)-5-(3,4-dihydroxybenzylidene)thiazol-4(5H)-one] | 89% | 87% | strongly reduced the ROS levels enhanced by SIN-1 | fold more potent than kojic acid ([1]; substrate L-dopa): 2 fold; peroxynitrite scavenging activity (in words) [5]: strong ROS and peroxynitrite scavenging activities
 | Cc1c(C)c2c(c(C)c1O)CCC(C)(C(=O)O)O2 (stereo not drawn) [Trolox, reference compound] |  | 99% | reduced the ROS levels enhanced by SIN-1 | 
10 ± 0.9 µM | COc1ccc(/C=C2\SC(NCc3ccccc3)=NC2=O)cc1O [Compound 7, (Z)-2-(benzylamino)-5-(3-hydroxy-4-methoxybenzylidene)thiazol-4(5H)-one] | 47% |  | moderate ROS scavenging activities | IC50 ([1]; substrate L-dopa, read-out: IC50 (µM) L-Dopa): 10.3 ± 0.24 µM; fold stronger tyrosinase inhibitory activity than derivative 5 ([1]; substrate L-tyrosine): 14.8 fold; Ki ([6]; Dixon plots, read-out: inhibition constant (Ki) for the mushroom tyrosinase–inhibitor complex): 3.1 µM; mode of inhibition ([6]; Lineweaver–Burk plots): competitive inhibitors; cytotoxicity ([7]; 72 h): showed cytotoxicity at a concentration of 20 µM; cytotoxicity ([7]; up to 48 h): not cytotoxic at all concentrations
 | O=C1N=C(Nc2nc3ccccc3s2)S/C1=C\c1ccc(O)cc1O [MHY2081] |  |  |  | IC50 [8]: 1.8 µM

From PMC9865752, “Design and Synthesis of (Z)-2-(Benzylamino)-5-benzylidenethiazol-4(5H)-one Derivatives as Tyrosinase Inhibitors and Their Anti-Melanogenic and Antioxidant Effects” (Molecules, 2023)
